Values after ≈ are worked out from the molar mass of the structure shown.
Key:
Format in all cases: functional
Pseudomonas aeruginosa [1] = test: Antibacterial activity against Pseudomonas aeruginosa NCIM 2036 measured after 8 hrs by spectrophotometric method; conditions: NCIM 2036, 8 h
Staphylococcus aureus [2] = test: Antibacterial activity against Staphylococcus aureus NCIM 2079 measured after 12 hrs by spectrophotometric method; conditions: NCIM 2079, 12 h
Escherichia coli [3] = test: Antibacterial activity against Escherichia coli NCIM 2688 measured after 8 hrs by spectrophotometric method; conditions: NCIM 2688, 8 h
Bacillus subtilis [4] = test: Antibacterial activity against Bacillus subtilis NCIM 2010 measured after 12 hrs by spectrophotometric method; conditions: NCIM 2010, 12 h
[5] = test system: Mycobacterium tuberculosis; test: Antitubercular activity against dormant stage Mycobacterium tuberculosis H37Ra measured after 12 days by XTT assay; conditions: 288 h
Escherichia coli [6] = test: Antibacterial activity against Escherichia coli NCIM 2688 at 30 ug/ml measured after 8 hrs by spectrophotometric method; conditions: NCIM 2688, 8 h
Escherichia coli [7] = test: Antibacterial activity against Escherichia coli NCIM 2688 at 10 ug/ml measured after 8 hrs by spectrophotometric method; conditions: NCIM 2688, 8 h
Escherichia coli [8] = test: Antibacterial activity against Escherichia coli NCIM 2688 at 3 ug/ml measured after 8 hrs by spectrophotometric method; conditions: NCIM 2688, 8 h
Pseudomonas aeruginosa [9] = test: Antibacterial activity against Pseudomonas aeruginosa NCIM 2036 at 30 ug/ml measured after 8 hrs by spectrophotometric method; conditions: NCIM 2036, 8 h
Pseudomonas aeruginosa [10] = test: Antibacterial activity against Pseudomonas aeruginosa NCIM 2036 at 10 ug/ml measured after 8 hrs by spectrophotometric method; conditions: NCIM 2036, 8 h
Pseudomonas aeruginosa [11] = test: Antibacterial activity against Pseudomonas aeruginosa NCIM 2036 at 3 ug/ml measured after 8 hrs by spectrophotometric method; conditions: NCIM 2036, 8 h
Staphylococcus aureus [12] = test: Antibacterial activity against Staphylococcus aureus NCIM 2079 at 30 ug/ml measured after 12 hrs by spectrophotometric method; conditions: NCIM 2079, 12 h
Staphylococcus aureus [13] = test: Antibacterial activity against Staphylococcus aureus NCIM 2079 at 10 ug/ml measured after 12 hrs by spectrophotometric method; conditions: NCIM 2079, 12 h
Staphylococcus aureus [14] = test: Antibacterial activity against Staphylococcus aureus NCIM 2079 at 3 ug/ml measured after 12 hrs by spectrophotometric method; conditions: NCIM 2079, 12 h
Bacillus subtilis [15] = test: Antibacterial activity against Bacillus subtilis NCIM 2010 at 30 ug/ml measured after 12 hrs by spectrophotometric method; conditions: NCIM 2010, 12 h
Bacillus subtilis [16] = test: Antibacterial activity against Bacillus subtilis NCIM 2010 at 10 ug/ml measured after 12 hrs by spectrophotometric method; conditions: NCIM 2010, 12 h
Bacillus subtilis [17] = test: Antibacterial activity against Bacillus subtilis NCIM 2010 at 3 ug/ml measured after 12 hrs by spectrophotometric method; conditions: NCIM 2010, 12 h
[18] = test system: Mycobacterium tuberculosis; test: Antitubercular activity against dormant stage Mycobacterium tuberculosis H37Ra at 30 ug/ml measured after 12 days by XTT assay; conditions: 288 h
[19] = test system: Mycobacterium tuberculosis; test: Antitubercular activity against dormant stage Mycobacterium tuberculosis H37Ra at 10 ug/ml measured after 12 days by XTT assay; conditions: 288 h
[20] = test system: Mycobacterium tuberculosis; test: Antitubercular activity against dormant stage Mycobacterium tuberculosis H37Ra at 3 ug/ml measured after 12 days by XTT assay; conditions: 288 h

Row | Compound | IC50 (Pseudomonas aeruginosa [1]) [µg/mL] | MIC (Pseudomonas aeruginosa [1]) [µg/mL] | IC50 (Staphylococcus aureus [2]) [µg/mL] | MIC (Staphylococcus aureus [2]) [µg/mL] | IC50 (Escherichia coli [3]) [µg/mL] | MIC (Escherichia coli [3]) [µg/mL] | IC50 (Bacillus subtilis [4]) [µg/mL] | MIC (Bacillus subtilis [4]) [µg/mL] | IC50 [5] [µg/mL] | MIC [5] [µg/mL] | inhibition at 30 µg/mL (Escherichia coli [6]) [%] | inhibition at 10 µg/mL (Escherichia coli [7]) [%] | inhibition at 3 µg/mL (Escherichia coli [8]) [%] | inhibition at 30 µg/mL (Pseudomonas aeruginosa [9]) [%] | inhibition at 10 µg/mL (Pseudomonas aeruginosa [10]) [%] | inhibition at 3 µg/mL (Pseudomonas aeruginosa [11]) [%] | inhibition at 30 µg/mL (Staphylococcus aureus [12]) [%] | inhibition at 10 µg/mL (Staphylococcus aureus [13]) [%] | inhibition at 3 µg/mL (Staphylococcus aureus [14]) [%] | inhibition at 30 µg/mL (Bacillus subtilis [15]) [%] | also measured
1 | O=C1O[C@@H](CNC(=O)C23CC4CC(CC(C4)C2)C3)CN1c1ccc(N2CC3(COC3)C2)c(F)c1 | > 100 | > 100 | > 100 | > 100 | > 100 | > 100 | > 100 | > 100 | > 100 | > 100 | 60.1 | 43.3 | 36.8 | 40.7 | 39.2 | 49.6 | 71.1 | 55.5 | 54.9 | 69.8 | inhibition at 10 µg/mL (Bacillus subtilis [16]): 62%; inhibition at 3 µg/mL (Bacillus subtilis [17]): 51.3%; inhibition at 30 µg/mL [18]: 22.1%; inhibition at 10 µg/mL [19]: 4.41%; inhibition at 3 µg/mL [20]: 9.46%
2 | N#Cc1ccc(NC(=S)NC[C@H]2CN(c3ccc(N4CC5(COC5)C4)c(F)c3)C(=O)O2)cc1 | > 100 | > 100 | 1.03 (≈ 2.2 µM) | 11.2 (≈ 24 µM) | 1 (≈ 2.14 µM) | 9.54 (≈ 20.4 µM) | 0.86 (≈ 1.84 µM) | 3.87 (≈ 8.28 µM) | > 100 | > 100 | 95.7 | 93.2 | 78.2 | 50 | 46.6 | 22.1 | 94.3 | 91.6 | 75.6 | 98 | inhibition at 10 µg/mL (Bacillus subtilis [16]): 97.6%; inhibition at 3 µg/mL (Bacillus subtilis [17]): 81.3%; inhibition at 30 µg/mL [18]: 34.7%; inhibition at 10 µg/mL [19]: 58.1%; inhibition at 3 µg/mL [20]: 34.5%
3 | O=C1O[C@@H](CNS(=O)(=O)c2ccc(Cl)s2)CN1c1ccc(N2CC3(COC3)C2)c(F)c1 | 1.13 (≈ 2.32 µM) | 3.52 (≈ 7.21 µM) | 0.46 (≈ 0.943 µM) | 1.31 (≈ 2.68 µM) | 0.89 (≈ 1.82 µM) | 15.4 (≈ 31.6 µM) | 0.64 (≈ 1.31 µM) | 2.2 (≈ 4.51 µM) | > 100 | > 100 | 97.8 | 87.4 | 80.3 | 99 | 97.1 | 86.6 | 96.9 | 96.5 | 94.3 | 99.2 | inhibition at 10 µg/mL (Bacillus subtilis [16]): 97.2%; inhibition at 3 µg/mL (Bacillus subtilis [17]): 90%; inhibition at 30 µg/mL [18]: 74.6%; inhibition at 10 µg/mL [19]: -6.64%; inhibition at 3 µg/mL [20]: -14.5%
4 | OC1(CNc2ccc(N3CCOCC3)c(F)c2)CCN(Cc2ccccc2)C1 (stereo not given) | > 100 | > 100 | > 100 | > 100 | > 100 | > 100 | > 100 | > 100 | > 100 | > 100 | 53.9 | 49.6 | 45 | 63.7 | 37.1 | 14.4 | 53.2 | 48.9 | 44.3 | 52.2 | inhibition at 10 µg/mL (Bacillus subtilis [16]): 47.1%; inhibition at 3 µg/mL (Bacillus subtilis [17]): 44.7%; inhibition at 30 µg/mL [18]: 5.62%; inhibition at 10 µg/mL [19]: 6.11%; inhibition at 3 µg/mL [20]: 8%
5 | O=C(NC[C@H]1CN(c2ccc(N3CC4(COC4)C3)c(F)c2)C(=O)O1)c1ccc(C(F)(F)F)cc1 | 1.19 (≈ 2.48 µM) | 18.1 (≈ 37.8 µM) | 0.67 (≈ 1.4 µM) | 22.3 (≈ 46.5 µM) | > 100 | > 100 | > 100 | > 100 | > 100 | > 100 | 74.1 | 59.7 | 33.8 | 98.3 | 84.9 | 74.9 | 92.2 | 84.4 | 78.4 | 95.8 | inhibition at 10 µg/mL (Bacillus subtilis [16]): 78.8%; inhibition at 3 µg/mL (Bacillus subtilis [17]): 65.4%; inhibition at 30 µg/mL [18]: -20.7%; inhibition at 10 µg/mL [19]: -4.6%; inhibition at 3 µg/mL [20]: -10.1%
